From PubChem BioAssay AID602323 (The Scripps Research Institute Molecular Screening Center, 2012)
Active and inactive are the calls of the source. The rule behind the calls is not given here.

Columns and labels:
Test in all cases: serine hydrolase inhibition in mouse brain membranes, late-stage follow-up, selectivity assay for DAGLb inhibitor project, biochemical, gel-based competitive ABPP, fluorescence, set 2 (AID 602323)
[1] = target: Diacylglycerol lipase-beta (Mus musculus) (UniProt Q91WC9); details: mouse brain membrane, DAGLb, at 1 µM, stronger effect = higher value
Chain of Diacylglycerol lipase-beta (Mus musculus) (Q91WC9 whole entry, looked up): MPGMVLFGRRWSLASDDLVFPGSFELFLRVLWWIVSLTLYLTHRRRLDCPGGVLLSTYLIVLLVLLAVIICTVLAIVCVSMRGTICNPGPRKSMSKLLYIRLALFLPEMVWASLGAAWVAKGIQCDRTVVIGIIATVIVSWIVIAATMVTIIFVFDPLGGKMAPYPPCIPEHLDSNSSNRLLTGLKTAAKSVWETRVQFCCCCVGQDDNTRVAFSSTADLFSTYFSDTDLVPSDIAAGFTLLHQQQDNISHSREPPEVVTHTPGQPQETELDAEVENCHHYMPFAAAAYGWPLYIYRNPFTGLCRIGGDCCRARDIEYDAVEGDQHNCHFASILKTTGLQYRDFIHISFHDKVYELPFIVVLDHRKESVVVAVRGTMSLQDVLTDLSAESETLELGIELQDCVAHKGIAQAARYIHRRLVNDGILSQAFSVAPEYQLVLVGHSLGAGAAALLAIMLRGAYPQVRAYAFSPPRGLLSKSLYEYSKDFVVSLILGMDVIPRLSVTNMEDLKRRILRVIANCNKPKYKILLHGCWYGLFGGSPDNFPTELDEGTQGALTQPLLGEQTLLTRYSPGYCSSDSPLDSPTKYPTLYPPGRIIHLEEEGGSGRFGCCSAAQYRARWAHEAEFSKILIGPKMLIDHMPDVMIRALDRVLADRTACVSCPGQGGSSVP

[2] = target: Monoacylglycerol lipase ABHD6 (Mus musculus) (UniProt Q8R2Y0); details: mouse brain membrane, at 1 µM, stronger effect = higher value
Chain of Monoacylglycerol lipase ABHD6 (Mus musculus) (Q8R2Y0 whole entry, looked up): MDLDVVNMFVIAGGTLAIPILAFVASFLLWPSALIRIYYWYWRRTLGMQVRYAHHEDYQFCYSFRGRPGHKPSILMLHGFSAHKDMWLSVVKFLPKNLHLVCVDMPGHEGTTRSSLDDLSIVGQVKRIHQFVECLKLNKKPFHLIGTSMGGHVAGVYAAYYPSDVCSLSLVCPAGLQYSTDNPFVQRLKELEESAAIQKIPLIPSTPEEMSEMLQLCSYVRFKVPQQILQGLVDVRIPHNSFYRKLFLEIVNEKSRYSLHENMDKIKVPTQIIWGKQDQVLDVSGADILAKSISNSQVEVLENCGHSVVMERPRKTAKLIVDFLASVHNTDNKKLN

[3] = target: Platelet-activating factor acetylhydrolase (Mus musculus) (UniProt Q60963); details: mouse brain membrane, PLA2G7, at 1 µM, stronger effect = higher value
Chain of Platelet-activating factor acetylhydrolase (Mus musculus) (Q60963 whole entry, looked up): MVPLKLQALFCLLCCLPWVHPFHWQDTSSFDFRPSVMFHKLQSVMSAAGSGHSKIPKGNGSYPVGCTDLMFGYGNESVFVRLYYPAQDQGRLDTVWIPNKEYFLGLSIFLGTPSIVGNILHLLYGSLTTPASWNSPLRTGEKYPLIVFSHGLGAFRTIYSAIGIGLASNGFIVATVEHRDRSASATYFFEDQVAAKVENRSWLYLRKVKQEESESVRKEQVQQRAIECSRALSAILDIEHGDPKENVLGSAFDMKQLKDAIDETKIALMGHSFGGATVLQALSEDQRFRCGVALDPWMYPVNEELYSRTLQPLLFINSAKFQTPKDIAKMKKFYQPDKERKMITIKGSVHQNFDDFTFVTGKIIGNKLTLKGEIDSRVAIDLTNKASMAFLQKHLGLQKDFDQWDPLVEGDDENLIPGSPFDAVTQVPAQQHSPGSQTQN

| Compound | inhibition [1] | inhibition [2] [%] | inhibition [3] |
| --- | --- | --- | --- |
| O=C(N1CCCCC1Cc1ccccc1)n1cc(-c2ccc(-c3ccc(OC(F)(F)F)cc3)cc2)nn1 (stereo not given) | 20% (inactive) | 90 | 50% |
| O=C(N1CCCCC1Cc1ccccc1)n1cc(-c2ccc(-c3ccoc3)cc2)nn1 (stereo not given) | 60% | 90 | 45% (inactive) |
| CC(C)CN(CCc1ccccc1)C(=O)n1cc(-c2ccc(OC(F)(F)F)cc2)nn1 | 90% | 95 | 95% |
| O=C(N1CCCCC1Cc1ccccc1)n1cc(-c2ccc(OC(F)(F)F)cc2)nn1 (stereo not given) | 90% | 90 | 90% |
| Cc1ccccc1-c1ccc(-c2cn(C(=O)N3CCCCC3Cc3ccccc3)nn2)cc1 (stereo not given) | 80% | 90 | 80% |
| O=C(N1CCCCC1Cc1ccccc1)n1cc(-c2ccc(-c3ccccc3Cl)cc2)nn1 (stereo not given) | 90% | 90 | 90% |
| O=C(N1CCCCC1Cc1ccccc1)n1cc(-c2ccc(-c3ccc4c(c3)OCO4)cc2)nn1 (stereo not given) | 25% (inactive) | 90 | 20% (inactive) |
| O=C(N1CCCCC1Cc1ccccc1)n1ncc(-c2ccc(OC(F)(F)F)cc2)n1 (stereo not given) | 50% | 70 | 90% |
| COc1ccccc1-c1ccc(-c2cn(C(=O)N3CCCCC3Cc3ccccc3)nn2)cc1 (stereo not given) | 85% | 95 | 25% (inactive) |
| O=C(N1CCCCC1Cc1ccccc1)n1cc(-c2cccc(-c3ccccc3)c2)nn1 (stereo not given) | 75% | 95 | 30% (inactive) |
| O=C(N1CCCCC1Cc1ccccc1)n1cc(-c2ccc(-c3ccccc3CO)cc2)nn1 (stereo not given) | 90% | 95 | 20% (inactive) |
| O=C(N1CCCCC1Cc1ccccc1)n1cc(-c2ccccc2-c2ccccc2)nn1 (stereo not given) | 75% | 95 | 40% (inactive) |
| CC(C)(C)OC(=O)NCCCCCN(CCc1ccccc1)C(=O)n1cc(-c2ccc(OC(F)(F)F)cc2)nn1 | 95% | 90 | 95% |
| O=C(N1CCCCC1Cc1ccccc1)n1ncc(C(O)(c2ccccc2)c2ccccc2)n1 (stereo not given) | 80% | 90 | 0% (inactive) |
| O=C(N1CCCCC1Cc1ccccc1)n1cc(-c2ccc(-c3cccc(C(F)(F)F)c3)cc2)nn1 (stereo not given) | 45% (inactive) | 95 | 25% (inactive) |
| O=C(N1CCCCC1Cc1ccccc1)n1cc(-c2cc(F)cc(F)c2)nn1 (stereo not given) | 85% | 98 | 95% |
| O=C(N1CCCCC1Cc1ccccc1)n1cc(-c2ccc(-c3ccccc3)cc2)nn1 (stereo not given) | 80% | 95 | 40% (inactive) |
| O=C(N1CCCCC1Cc1ccccc1)n1cc(-c2ccc(-c3ccccc3C(F)(F)F)cc2)nn1 (stereo not given) | 75% | 90 | 25% (inactive) |
| O=C(N1CCCCC1Cc1ccccc1)n1cc(-c2ccc(-c3ccc(C(F)(F)F)cc3)cc2)nn1 (stereo not given) | 25% (inactive) | 80 | 50% |
| O=C(N1CCCCC1Cc1ccccc1)n1cc(-c2ccc(Br)cc2)nn1 (stereo not given) | 85% | 98 | 95% |
| O=C(N1CCCCC1Cc1ccccc1)n1cc(-c2ccc(-c3ccccc3OC(F)(F)F)cc2)nn1 (stereo not given) | 80% | 95 | 60% |
| O=C(N(CCc1ccccc1)Cc1ccco1)n1cc(-c2ccc(OC(F)(F)F)cc2)nn1 | 95% | 95 | 95% |
| O=C(c1ccc(-c2cn(C(=O)N3CCCCC3Cc3ccccc3)nn2)cc1)N1CCCCC1 (stereo not given) | 95% | 95 | 30% (inactive) |
| O=C(c1ccc(-c2ccc(-c3cn(C(=O)N4CCCCC4Cc4ccccc4)nn3)cc2)cc1)N1CCCCC1 (stereo not given) | 20% (inactive) | 90 | 0% (inactive) |
| O=C(N1CCCCC1Cc1ccccc1)n1cc(-c2ccc(-c3cccc(CO)c3)cc2)nn1 (stereo not given) | 25% (inactive) | 90 | 0% (inactive) |
